Test results: patent publication US4151350A, “Poly-5-hydroxycytidylic acid copolymers” (priority 1976, dated 1979)

How the values were obtained:
[1] = Acute toxicity (LD50), intraperitoneal, mice (Example 6, Table 4); assay type: in vivo, 6 week old female albino mice; conditions: i.p.; for Estimated LD50 dose: mice
Excerpt: The toxicity of these mixtures (LD50) are compared with the toxicity of poly I alone and the double-stranded complex between poly I and poly C (poly I:C). The mixtures contained poly ho^5 C containing 62% ho^5 CMP and 38% br^5 CMP obtained by bromine water treatment of poly C as described in example 1. Some of this material was frozen in the absence of salt to produce a gelled material when thawed. This material was homogenised and mixed with an equal weight of poly I and then administered intraperitoneally to the mice. Some of the poly ho^5 C is kept unfrozen and mixed with poly I and then administered intraperitoneally to the mice.
Poly I:C was made up in HBS at 5mg. 8mg, 10mgs and 13mg/ml and 0.1ml
injected per mouse to give the total doses shown.
Poly I was made up in HBS at 12mg/ml and appropriate volumes administered
to give the final doses indicated.
in HBS to a total polynucleotide concentration of 12mg/ml and appropriate
volumes administered to give the final doses indicated.
No deaths occurred after 7 days (records maintained 2 months) and mean

[2] = particularly by virtue of its ability to induce interferon; cited from earlier work

Row | Substance | Survival of mice per group ([1]; 0.5 mg total polynucleotides) | Survival of mice per group ([1]; 0.8 mg total polynucleotides) | Survival of mice per group ([1]; 1.0 mg total polynucleotides) | Survival of mice per group ([1]; 1.3 mg total polynucleotides) | Estimated LD50 dose [1] [mg/mouse] | Estimated LD50 dose ([1]; mean weight 23 g) [mg/kilogram] | anti-viral effects [2] | Survival of mice per group ([1]; 8 mg total polynucleotides) | Survival of mice per group ([1]; 12 mg total polynucleotides) | Survival of mice per group ([1]; 16 mg total polynucleotides) | Survival of mice per group ([1]; 24 mg total polynucleotides)
1 | poly I:C | 10/10 | 8/10 | 6/10 | 0/10 | 1.1 | 48 | known to have anti-viral effects |  |  |  | 
2 | polyinosinic acid [poly I] |  |  |  |  | 16 | 695 |  | 5/6 | 5/6 | 3/6 | 1/6
